Laboratory results from PubChem BioAssay (NCI).
Several values for one entry are separate records, joined by “and”; a condition that tells them apart may be missing. Equal entries are not always repeated.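 How tested: cells in 96-well plates exposed to compound for 48 hours at five concentrations. The concentration for 50% growth inhibition is given as GI50. Definition used: TGI = concentration required for complete inhibition of growth.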 Where a SMILES comes first, the peptide text is derived from it. [ ]: non-standard residue; d: D form. 2Nal = N[CH](Cc1ccc2ccccc2c1)C(=O)O

How the values were obtained:
Assay in all cases: NCI-60 cell line screen, 48 h
[1] = tested on: XF 498 CNS
[2] = tested on: NCI-H522 lung
[3] = tested on: A549 NSCLC
[4] = tested on: HCT-116 colon
[5] = tested on: SNB-75 CNS
[6] = tested on: UO-31 renal
[7] = tested on: DLD-1 colon
[8] = tested on: K-562 leukemia
[9] = tested on: U251 CNS
[10] = tested on: SNB-19 CNS
[11] = tested on: 786-0 renal

SMILES	TGI [1] [µM]	TGI [2] [µM]	TGI [3]	TGI [4] [µM]	TGI [5] [µM]	TGI [6]	TGI [7] [µM]	TGI [8]	TGI [9]	TGI [10] [µM]	TGI [11]	GI50 [3] [µM]	GI50 [4] [µM]	GI50 [6] [µM]	GI50 [8] [µM]	GI50 [9] [µM]	GI50 [11] [µM]
CSc1s[s+]c(SC)c1[O-]	> 100	32.2	> 100 µM	36.8	> 100	> 100 µM	33.6	25.2 µM	86.5 µM	> 100	30.3 µM	–	–	–	–	–	–
COc1ccc(OC)c(CCc2cc(OC)c(OC)cc2C)c1	> 100	20.4	> 100 µM	–	> 100	> 100 µM	> 100	> 100 µM	> 100 µM	> 100	> 100 µM	–	–	–	–	–	–
COc1ccc(C(=O)C(C(=O)C(=O)Nc2nc3ccc(OC)cc3s2)c2ccc(OC)cc2)cc1 (configuration not stated)	> 100	–	> 100 µM	–	> 100	> 100 µM	> 100	> 100 µM	> 100 µM	> 100	> 100 µM	–	–	–	–	–	–
Cc1ccc(C(=O)/C=C/c2ccccc2Cl)cc1	–	26.9	85.4 µM	25.6	44.8	32.8 µM	36	46 µM	30.3 µM	32.5	29.7 µM	–	–	–	–	–	–
Oc1cccc(C2SCc3nc4ccccc4n32)c1 (configuration not stated)	–	> 100	> 100 µM	> 100	> 100	> 100 µM	> 100	> 100 µM	> 100 µM	> 100	> 100 µM	–	–	–	–	–	–
O=C(Nc1cc(C(F)(F)F)ccc1Cl)C(=O)C(C(=O)c1ccc2ccccc2c1)C1OC(=O)c2ccccc21 (configuration not stated)	–	20	> 100 µM	30.2	21.7	28.2 µM	36.3	49.6 µM	14.3 µM	20.6	17.7 µM	–	–	–	–	–	–
COC1OC(C)C(OC(=O)C(C)(C)C)C(C)(O)C1O (configuration not stated)	> 100	> 100	> 100 µM	> 100	–	–	> 100	> 100 µM	> 100 µM	> 100	> 100 µM	–	–	–	–	–	–
Fc1cccc(F)c1C1SCc2nc3ccccc3n21 (configuration not stated)	> 100	> 100	> 100 µM	> 100	> 100	> 100 µM	> 100	> 100 µM	> 100 µM	> 100	> 100 µM	–	–	–	–	–	–
CC(NC(=O)C(N)Cc1ccccc1)C(=O)NC(Cc1ccc(O)cc1)C(=O)NC(Cc1c[nH]c2ccccc12)C(=O)NC(CCCCN)C(=O)NC(C(=O)NC(C)C(=O)NC(Cc1ccc2ccccc2c1)C(N)=O)C(C)C (configuration not stated) (H-FAYWKVA[2Nal]-NH2; configuration not given here)	54.9	> 12.5	> 12.5 µM and 48.7 µM	> 100	71.8	> 12.5 µM and 58.6 µM	> 100	> 12.5 µM and 30.5 µM	> 12.5 µM and 67 µM	71.1	> 12.5 µM and 65.1 µM	20.7	33.9	27.1	16.9	25.1	24.8
CN/N=C(\C)CC(=O)Nc1cccc(Cl)c1C	> 100	> 100	> 100 µM	> 100	> 100	> 100 µM	> 100	> 100 µM	> 100 µM	> 100	> 100 µM	–	–	–	–	–	–
Cc1ccc(NC(=O)SCCC(=O)O)cc1NC(=O)SCCC(=O)O	–	> 100	> 100 µM	> 100	–	> 100 µM	> 10	> 100 µM	> 100 µM	> 100	> 100 µM	–	–	–	–	–	–
CC1CC(=O)C(C(O)CC2CC(=O)N(c3ccccc3)C(=O)C2)C(C)C1 (configuration not stated)	–	> 100	> 100 µM	> 100	> 100	> 100 µM	> 100	> 100 µM	> 100 µM	> 100	> 100 µM	–	–	–	–	–	–
COc1ccc(-c2c(N)[n+]([O-])c3cc(C)c(C)cc3[n+]2[O-])cc1OC	> 100	37.8	> 100 µM	–	> 100	> 100 µM	> 100	> 100 µM	> 100 µM	> 100	> 100 µM	–	–	–	–	–	–
CCCCCCCCCCCCCCCCCC(=O)NCCCNCCCNC(=O)CCCCCCCCCCCCCCCCC	–	–	> 100 µM	> 100	–	> 100 µM	> 100	> 100 µM	> 100 µM	> 100	> 100 µM	–	–	–	–	–	–
O=C(O)/C(O)=C1/C=C(c2ccccc2)c2ccccc21	–	30.9	71.4 µM	37.6	61.7	41.6 µM	> 100	73.5 µM	35.9 µM	83.9	78 µM	–	–	–	–	–	–
Cc1ccccc1NC(=O)C(=O)Cc1nc2ccccc2s1	> 100	> 100	> 100 µM	> 100	> 100	> 100 µM	> 100	> 100 µM	> 100 µM	> 100	> 100 µM	–	–	–	–	–	–
C=C(CO)CC(O)c1ccccc1 (configuration not stated)	> 100	> 100	> 100 µM	> 100	> 100	> 100 µM	> 100	> 100 µM	> 100 µM	> 100	> 100 µM	–	–	–	–	–	–
O=C(O)C1Cc2nc[nH]c2CN1 (configuration not stated)	–	> 100	> 100 µM	> 100	> 100	> 100 µM	> 100	> 100 µM	> 100 µM	> 100	> 100 µM	–	–	–	–	–	–
CC1=CCC2(C#N)CCC1C2=O (configuration not stated)	> 100	> 100	> 100 µM	> 100	–	> 100 µM	> 100	> 100 µM	> 100 µM	> 100	> 100 µM	–	–	–	–	–	–
CC(C)OCN1COCN=C1NC#N	–	> 100	> 100 µM	> 100	> 100	> 100 µM	57.6	> 100 µM	> 100 µM	> 100	> 100 µM	–	–	–	–	–	–
